Measurements published in ChEMBL document CHEMBL4680205, “Multifunctional 6-fluoro-3-[3-(pyrrolidin-1-yl)propyl]-1,2-benzoxazoles targeting behavioral and psychological symptoms of dementia (BPSD)” (Eur J Med Chem, 2020).
Blank lines part the entries; values can stand above or below the compound they belong to.

Tests used:
[1] = target: T1, 5-hydroxytryptamine receptor 7 (Homo sapiens, UniProt P34969); assay type: cell membranes, CHO-K1, Membrane
[2] = target: 5-hydroxytryptamine receptor 2A (Homo sapiens, UniProt P28223); assay type: cell membranes, CHO-K1, Membrane
[3] = target: T1, 5-hydroxytryptamine receptor 7; settings: CHO-K1, filed as antagonist, time 1.0 hrs
[4] = target: T2, Alpha-2C adrenergic receptor (Homo sapiens, UniProt P18825); test: Antagonist activity at recombinant human adrenergic receptor alpha2c expressed in CHO-K1 cells assessed inhibition of epinephrine-induced cAMP accumulation measured after 10 mins by HTRF assay; assay type: cell-based; settings: cho-k1, 10 min
T2 sequence (P18825 whole entry): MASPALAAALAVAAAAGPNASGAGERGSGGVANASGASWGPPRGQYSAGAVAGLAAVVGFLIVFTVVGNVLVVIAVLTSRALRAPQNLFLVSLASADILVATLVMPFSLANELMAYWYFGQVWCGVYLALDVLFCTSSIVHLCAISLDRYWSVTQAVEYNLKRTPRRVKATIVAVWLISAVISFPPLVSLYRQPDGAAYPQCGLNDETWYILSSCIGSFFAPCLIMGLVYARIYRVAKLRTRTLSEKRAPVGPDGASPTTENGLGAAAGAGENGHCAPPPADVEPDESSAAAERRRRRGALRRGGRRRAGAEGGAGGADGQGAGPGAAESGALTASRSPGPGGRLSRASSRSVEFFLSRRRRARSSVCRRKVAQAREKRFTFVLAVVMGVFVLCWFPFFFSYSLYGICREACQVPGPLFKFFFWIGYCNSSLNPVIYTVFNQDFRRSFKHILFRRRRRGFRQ

Mus musculus [5] = organism: Mus musculus; test: animal or person; settings: CD-1, ip, 2 h, read-out: MED
Mus musculus [6] = organism: Mus musculus; test: animal or person; settings: CD-1, ip, 2 h, read-out: MED; remark: listed apart in the source
[7] = Sedative activity in ip dosed CD-1 mouse assessed as effect spontaneous locomotor activity measured at 5 mins interval for 120 mins; assay type: ADME, organism-based; settings: in vivo, 2 h
[8] = Sedative activity in ip dosed Swiss albino mouse assessed as effect spontaneous locomotor activity measured during 2 to 6 mins of test; assay type: ADME, organism-based; settings: in vivo, time 2-6 min
Mus musculus [9] = organism: Mus musculus; test: animal or person; settings: Swiss, ip, 0.1 h, read-out: MED
[10] = Psychoactive effect in ip dosed CD-1 mouse assessed as catalepsy effect measured after 30 to 120 mins by bar test; assay type: ADME, organism-based; settings: in vivo, time 30-120 min
[11] = mouse, in vivo, ip, 0.5 h
[12] = target: D(2) dopamine receptor (Homo sapiens) (UniProt P14416); settings: CHO-K1, filed as antagonist, time 15-31 min
[13] = target: T3, 5-hydroxytryptamine receptor 2C (Homo sapiens, UniProt P28335); test: Antagonist activity at recombinant human 5HT2C receptor expressed in HEK293 cells assessed as inhibition of serotonin-induced inositol phosphate accumulation measured after 30 mins by HTRF assay; assay type: cell-based; settings: hek293, 0.5 h
T3 sequence (P28335 whole entry): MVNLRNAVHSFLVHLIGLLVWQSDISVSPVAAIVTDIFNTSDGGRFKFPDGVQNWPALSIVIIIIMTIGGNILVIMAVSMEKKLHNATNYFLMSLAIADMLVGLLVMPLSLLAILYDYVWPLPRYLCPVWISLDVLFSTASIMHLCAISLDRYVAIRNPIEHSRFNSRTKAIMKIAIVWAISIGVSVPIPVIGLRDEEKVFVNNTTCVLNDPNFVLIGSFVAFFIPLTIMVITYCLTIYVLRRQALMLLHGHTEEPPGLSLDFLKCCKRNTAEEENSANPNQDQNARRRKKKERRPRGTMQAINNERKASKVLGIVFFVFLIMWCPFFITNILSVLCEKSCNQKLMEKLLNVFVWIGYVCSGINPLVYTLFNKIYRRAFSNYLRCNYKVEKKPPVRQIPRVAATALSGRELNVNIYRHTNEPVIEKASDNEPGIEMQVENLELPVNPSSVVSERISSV

Sequence of 5-hydroxytryptamine receptor 2A (P28223 whole entry): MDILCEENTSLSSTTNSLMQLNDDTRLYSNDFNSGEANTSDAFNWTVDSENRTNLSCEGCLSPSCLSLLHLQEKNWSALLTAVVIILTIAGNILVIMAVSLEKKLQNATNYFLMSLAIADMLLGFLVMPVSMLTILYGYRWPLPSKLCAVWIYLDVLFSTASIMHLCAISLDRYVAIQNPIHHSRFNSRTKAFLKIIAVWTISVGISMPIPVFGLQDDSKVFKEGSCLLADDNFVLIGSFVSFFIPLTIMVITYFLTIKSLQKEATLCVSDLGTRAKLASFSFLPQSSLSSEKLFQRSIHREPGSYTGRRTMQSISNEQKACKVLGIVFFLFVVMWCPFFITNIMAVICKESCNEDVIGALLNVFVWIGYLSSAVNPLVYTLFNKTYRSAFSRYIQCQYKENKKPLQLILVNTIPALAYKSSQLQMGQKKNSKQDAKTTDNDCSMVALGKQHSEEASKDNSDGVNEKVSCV
T1 sequence (P34969 whole entry): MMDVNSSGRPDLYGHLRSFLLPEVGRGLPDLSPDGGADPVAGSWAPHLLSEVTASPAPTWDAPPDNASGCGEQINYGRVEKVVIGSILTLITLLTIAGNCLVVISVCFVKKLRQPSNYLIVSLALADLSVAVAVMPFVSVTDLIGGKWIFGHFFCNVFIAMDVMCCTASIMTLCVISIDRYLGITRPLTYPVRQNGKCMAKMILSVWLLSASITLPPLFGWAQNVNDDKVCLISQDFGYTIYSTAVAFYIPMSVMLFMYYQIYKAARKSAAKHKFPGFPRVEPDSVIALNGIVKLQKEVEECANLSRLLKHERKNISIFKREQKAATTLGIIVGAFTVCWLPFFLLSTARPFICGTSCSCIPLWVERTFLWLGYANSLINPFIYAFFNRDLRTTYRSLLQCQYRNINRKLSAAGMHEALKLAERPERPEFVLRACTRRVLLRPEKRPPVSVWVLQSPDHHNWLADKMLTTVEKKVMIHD
Sequence of D(2) dopamine receptor (Homo sapiens) (P14416 whole entry): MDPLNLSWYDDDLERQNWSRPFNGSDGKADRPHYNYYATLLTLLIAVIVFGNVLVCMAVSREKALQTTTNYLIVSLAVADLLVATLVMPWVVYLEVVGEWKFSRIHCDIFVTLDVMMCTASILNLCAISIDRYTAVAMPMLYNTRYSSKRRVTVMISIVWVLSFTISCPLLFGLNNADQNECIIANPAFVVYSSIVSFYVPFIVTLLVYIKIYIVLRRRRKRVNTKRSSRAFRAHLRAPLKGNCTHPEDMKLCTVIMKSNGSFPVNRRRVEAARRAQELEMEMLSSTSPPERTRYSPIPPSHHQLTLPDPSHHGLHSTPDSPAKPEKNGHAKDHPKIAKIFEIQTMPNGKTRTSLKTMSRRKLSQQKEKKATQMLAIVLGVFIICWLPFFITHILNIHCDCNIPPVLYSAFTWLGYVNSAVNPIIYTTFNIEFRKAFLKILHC

Ki [1]: 25.7 nM | Ki [2]: 6.46 nM
Compound: O=S(=O)(N[C@H]1CCN(CCCc2noc3cc(F)ccc23)C1)c1ccc(F)c(Cl)c1

pKb [3]: 9.55
Compound: CC1CCN(CC[C@H]2CCCN2S(=O)(=O)c2cccc(O)c2)CC1

Ki [1]: 12.9 nM | Ki [2]: 1.02 nM
Compound: Cc1cccc(S(=O)(=O)N[C@H]2CCN(CCCc3noc4cc(F)ccc34)C2)c1

Ki [1]: 1.7 nM
Compound: Cc1cccc(S(=O)(=O)N[C@@H]2CCN(CCCc3noc4cc(F)ccc34)C2)c1

Ki [1]: 1.45 nM | Ki [2]: 5.25 nM
Compound: O=S(=O)(N[C@@H]1CCN(CCCc2noc3cc(F)ccc23)C1)c1ccc(F)c(Cl)c1

The remaining lines, values behind:

Compound: COC(=O)[C@H]1[C@H]2C[C@H]3c4[nH]c5ccccc5c4CCN3C[C@H]2CC[C@@H]1O [RAUWOLSCINE]
pKb [4]: 8.62

Compound: OCCOCCN1CCN(C2=Nc3ccccc3Sc3ccccc32)CC1 [QUETIAPINE]
minimal effective dose (Mus musculus [5]): 10 mg/kg | minimal effective dose (Mus musculus [6]): 5 mg/kg | MED [7]: 10 mg/kg | MED [8]: 10 mg/kg | minimal effective dose (Mus musculus [9]): 10 mg/kg | MED [10]: 30 mg/kg

Compound: O=C1CCc2ccc(OCCCCN3CCN(c4cccc(Cl)c4Cl)CC3)cc2N1 [ARIPIPRAZOLE]
MED [11]: > 2.5 mg/kg

Compound: CN(C)CCCN1c2ccccc2Sc2ccc(Cl)cc21
pKb [12]: 8.84

Compound: Cn1ccc2cc3c(cc21)CCN3C(=O)Nc1cccnc1
pKb [13]: 8.39
